The results in this text go back to US20120034162A1, “Fullerene Assisted Cell Penetrating Peptides” (William March Rice University, priority 2006, published 2012).

The format of data set [1] is in vitro ADME, bovine. From the text: Peptide stability. In order to test the stability of the fullerene peptide linkage, samples of Baa-Lys(FITC)-Lys8-OH and H-Baa-Lys(FITC)-NLS were exposed to bovine plasma for up to 3 days and analyzed by HPLC.
Data set [2] concerns HEK-293a cells. The data set is described as follows: Cellular uptake by fluorescence microscopy. In kind it is cell-based, human.
For data set [3], the system named is HEK-293a cells. In words: Cellular uptake by fluorescence microscopy. In kind it is cell-based, human. How it is done: Cellular uptake. An immortalized human embryonic kidney epithelial cancer cell line was used in initial cellular uptake studies. HEK-293a cells were cultured in RMPI 1640 medium supplemented with 10% fetal bovine serum (FBS) in 5% CO2 and 37° C. humidified incubator. The medium was supplemented with penicillin (100 U·mL^−1), streptomycin (100 μg/mL), and glutamine (2 mM). For experiments and microscopy, cells were seeded at 1×10^4 cells per well on 6-well plates and grown for two days in RPMI supplemented with 10%. Cells were incubated with each peptide (40 μM) for 24 hrs at 37° C. After treatment, the cells were washed with RPMI supplemented with 10% FBS and phosphate buffered saline (PBS, 10 mM). Fluorescence was observed by a fluorescent microscope equipped with FITC and red filters.
This is another data set of the same source.

Data set [4] can be described thus: Peptide aggregation, particle size in solution by dynamic light scattering (DLS). In kind it is physicochemical. The settings on record: PBS buffer. How it is done:
Rink amide and Wang resin were obtained from Novabiochem, USA. Amino acids were purchased from Novabiochem and used as received. MALDI-TOF mass analysis was performed on a linear Protein-TOF Bruker instrument using sinipinic acid as the matrix. CD spectra were obtained on a Jasco J-700 dichrometer using 1 mm path-length quartz cells. Peptide solutions were 1.0 mg·mL^−1 solution in milliQ H2O or PBS buffer. In the case of peptides (21, 22 and 23), the pH was first adjusted to 10 to break up any aggregations and then adjusted by addition of 0.1 mM HCl until the desired pH was obtained. CD spectra were recorded in millidegrees and converted to residual molar ellipticity. TEM measurements were performed on a JEOL 2010 TEM at 200 kV. DLS Measurements were performed on the samples using an Brookhaven 90Plus submicron particle-size analyzer with HeNe laser (30 mW) that operates at […] wavelength.
With reference back to Table 1, in order to understand the intracellular transport of the FITC functionalized Baa-peptides, 25 and Baa-Lys(FITC)-NLS (26), their particle size in solution was determined by dynamic light scattering (DLS). Three series of solutions of 24, 25 and 26 in the range of 0.125-2.0 mg/mL was prepared by weighing method. PBS buffer prepared from HPLC grade water was used as solvent and was filtered through a […] cup filter (Millipore, Express).

Data set [5] is described as follows: Aggregate size and morphology by cryo-TEM. In kind it is physicochemical. The settings on record: 1.0 mg/mL in PBS buffer, pH 7. As for the experimental part:
To further examine the actual aggregate size and morphology, cryo-TEM experiments were performed for both peptides 25 and 26. The images were taken in the concentration of 1.0 mg/mL for both peptides. Samples for cryo-TEM studies were prepared by dipping a copper grid coated with amorphous carbon-holey film into the sample solution. The TEM images were mainly taken in the hole region of the TEM grid to minimize the artificial effect from the samples or ice. […] Both peptides forms spherical and ellipsoidal clusters, with an average aggregate sizes of 40-80 nm for 25 and 50-150 nm for 26, which are generally smaller than the diameters observed by DLS. Consistent with the DLS study, Baa-Lys(FITC)-Lys8-OH (25) are more uniform in size than Baa-Lys(FITC)-NLS (26). FIGS. 9a and 9b show the vitreous ice cryo-TEM micrograph of the large aggregates (9a) and small aggregates (9b) formed by Baa-Lys(FITC)-Lys8-OH in PBS buffer (1 mg/mL at pH=7). There are two dominant groups in size for 25; one type has the diameter of 40-80 nm with predominant population at size of ca. 50 nm, and the other population has a diameter less than 20 nm, which may correspondent to the size of fullerene peptides itself. In contrast, the size distribution of 26 large aggregates is much polydisperse, ranging from 50-150 nm with no obvious dominant population for large aggregates, while smaller aggregates has similar size as Baa-Lys(FITC)-Lys8-OH. FIGS. 10a and 10b show the vitreous ice cryo-TEM micrograph of the large aggregates (10a) and small aggregates (10b) formed by Baa-Lys(FITC)-NLS in PBS buffer (1 mg/mL at pH=7). The aggregate sizes from the two peptides seem to be consistent with the hydrophilicity of peptide chain as more hydrophilic sequence corresponds to smaller size (25), and vice versa (26).

“Also recorded” adds a separate entry of the source.

As for Baa-Lys(FITC)-(Lys)8-OH [Peptide 25], the “degradation of the sample in bovine plasma” value in data set [1] is listed as “No degradation”. Moreover, in the data set on HEK-293a cells [2], the “cellular uptake at 4° C.” value is on record as “no cellular uptake activity”. Moreover, the “cellular uptake / localization by fluorescence” value in the data set with HEK-293a cells [3] (40 μM, 24 hrs, 37° C., listed as H-Baa-Lys(FITC)-Lys8-OH) is “strong green fluorescence within the cytoplasm; also recorded: accumulates in the cytoplasm”. For the same substance, the “Active Cellular Uptake” value in the data set on HEK-293a cells [3] (HEK-293a cells) is “Yes”. Further, in data set [4], the “aggregate size, minor smaller component” value was “ca. 10 nm” and the “fraction of major aggregate component” value is reported as “ca. 60%”. The “third larger aggregate size at high concentration” value in data set [4] (2.0 mg/mL (25), above 1.0 mg/mL (26)) is reported as “ca. 1500 nm”. Moreover, the “distribution of minor smaller aggregate” value in data set [4] (0.125-1.0 mg/mL) is listed as 5-20 nm. Moreover, the “aggregate size, major (or single) component” value in data set [4] (0.125-2.0 mg/mL) is on record as “ca. 180 nm”. Besides, in data set [5], the “average aggregate size (large aggregates)” value is listed as 40-80 nm, the “diameter of small aggregate population” value is reported as “less than 20 nm” and the “predominant population size of large aggregates” value is reported as “ca. 50 nm”.
